Patent publication US20240166635A1, “AMINOHETEROARYL KINASE INHIBITORS” (Anrui Biomedical Technology (Guangzhou) Co.,Ltd., priority 2020, published 2024)
pIC50: −log10 of the molar value.

Legend:
Type in all cases: biochemical
[1] = target: CDK9/CyclinT1 (Homo sapiens (Human), UniProt P50750); assay: CDK9/CyclinT1 kinase inhibitory activity (Caliper mobility shift); settings: read-out: CDK9/Cyclin T1 IC50
[2] = target: CDK6/CyclinD1 (Homo sapiens (Human), UniProt Q00534); assay: CDK6/CyclinD1 kinase inhibitory activity (Caliper mobility shift); settings: read-out: CDK6/Cyclin D1 IC50
Sequence of CDK6/CyclinD1 (Q00534 whole entry): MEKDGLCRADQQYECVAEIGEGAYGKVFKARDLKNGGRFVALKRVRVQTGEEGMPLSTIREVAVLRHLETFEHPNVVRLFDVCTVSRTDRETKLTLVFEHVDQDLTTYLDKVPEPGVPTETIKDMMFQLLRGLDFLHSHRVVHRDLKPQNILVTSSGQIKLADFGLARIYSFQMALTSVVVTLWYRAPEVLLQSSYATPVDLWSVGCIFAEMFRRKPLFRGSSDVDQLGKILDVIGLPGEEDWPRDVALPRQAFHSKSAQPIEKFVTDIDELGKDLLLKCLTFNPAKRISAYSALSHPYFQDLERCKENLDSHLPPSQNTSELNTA
Sequence of CDK6/CyclinD1 (P24385 whole entry partner): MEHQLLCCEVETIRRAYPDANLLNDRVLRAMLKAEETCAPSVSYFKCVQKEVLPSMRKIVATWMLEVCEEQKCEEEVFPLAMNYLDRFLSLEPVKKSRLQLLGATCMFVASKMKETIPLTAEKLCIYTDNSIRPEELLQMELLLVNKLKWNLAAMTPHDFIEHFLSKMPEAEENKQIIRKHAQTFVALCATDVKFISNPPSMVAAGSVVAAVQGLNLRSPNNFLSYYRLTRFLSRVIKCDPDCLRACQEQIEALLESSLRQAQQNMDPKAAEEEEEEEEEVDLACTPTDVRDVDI

[3] = target: CDK1/CyclinB (Homo sapiens (Human), UniProt P06493); assay: CDK1/CyclinB kinase inhibitory activity (Caliper mobility shift); settings: read-out: CDK1/Cyclin B1 IC50
Sequence of CDK1/CyclinB (P06493 whole entry): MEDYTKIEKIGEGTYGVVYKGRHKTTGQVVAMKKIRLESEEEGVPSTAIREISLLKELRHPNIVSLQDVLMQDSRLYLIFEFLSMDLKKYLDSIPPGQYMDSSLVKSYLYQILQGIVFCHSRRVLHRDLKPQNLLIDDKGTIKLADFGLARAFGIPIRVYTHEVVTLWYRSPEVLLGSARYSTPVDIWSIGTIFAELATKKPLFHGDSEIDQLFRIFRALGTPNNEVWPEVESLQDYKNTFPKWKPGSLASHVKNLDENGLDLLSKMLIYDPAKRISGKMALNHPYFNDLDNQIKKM
Sequence of CDK1/CyclinB (P14635 whole entry partner): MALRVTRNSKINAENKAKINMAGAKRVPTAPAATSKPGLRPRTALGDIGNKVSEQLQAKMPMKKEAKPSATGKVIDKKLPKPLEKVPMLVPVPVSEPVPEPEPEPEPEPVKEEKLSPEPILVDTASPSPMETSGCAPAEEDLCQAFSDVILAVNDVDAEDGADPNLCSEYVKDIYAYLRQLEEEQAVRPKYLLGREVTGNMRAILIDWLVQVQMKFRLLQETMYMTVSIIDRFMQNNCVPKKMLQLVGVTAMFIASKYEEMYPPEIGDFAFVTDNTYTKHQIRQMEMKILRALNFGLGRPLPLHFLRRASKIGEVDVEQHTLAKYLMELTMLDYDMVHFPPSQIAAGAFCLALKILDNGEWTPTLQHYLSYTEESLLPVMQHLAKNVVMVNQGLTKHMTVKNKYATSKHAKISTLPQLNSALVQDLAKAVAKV

[4] = target: CDK7/CyclinH/MAT1 (Homo sapiens (Human), UniProt P50613); assay: CDK7/CyclinH/MAT1 kinase inhibitory activity (Caliper mobility shift)
Sequence of CDK7/CyclinH/MAT1 (P50613 whole entry): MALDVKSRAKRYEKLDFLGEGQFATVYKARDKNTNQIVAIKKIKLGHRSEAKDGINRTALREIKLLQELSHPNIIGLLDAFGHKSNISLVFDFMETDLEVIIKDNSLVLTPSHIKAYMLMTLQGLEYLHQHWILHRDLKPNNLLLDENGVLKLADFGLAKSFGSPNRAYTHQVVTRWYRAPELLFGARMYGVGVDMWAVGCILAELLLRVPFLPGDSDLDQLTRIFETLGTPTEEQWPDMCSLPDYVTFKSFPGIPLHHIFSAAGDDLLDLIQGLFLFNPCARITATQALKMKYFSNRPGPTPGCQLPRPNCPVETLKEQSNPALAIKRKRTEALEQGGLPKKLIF
Sequence of CDK7/CyclinH/MAT1 (P51946 whole entry partner): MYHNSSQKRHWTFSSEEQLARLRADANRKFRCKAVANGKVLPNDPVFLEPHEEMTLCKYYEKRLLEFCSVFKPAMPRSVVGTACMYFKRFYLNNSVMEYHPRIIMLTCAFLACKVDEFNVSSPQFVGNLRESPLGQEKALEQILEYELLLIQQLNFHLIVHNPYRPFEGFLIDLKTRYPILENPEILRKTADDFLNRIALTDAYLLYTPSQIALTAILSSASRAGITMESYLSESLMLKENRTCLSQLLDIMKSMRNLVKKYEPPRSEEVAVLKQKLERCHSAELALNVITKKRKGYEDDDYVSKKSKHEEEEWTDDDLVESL
Sequence of CDK7/CyclinH/MAT1 (P51948 whole entry partner): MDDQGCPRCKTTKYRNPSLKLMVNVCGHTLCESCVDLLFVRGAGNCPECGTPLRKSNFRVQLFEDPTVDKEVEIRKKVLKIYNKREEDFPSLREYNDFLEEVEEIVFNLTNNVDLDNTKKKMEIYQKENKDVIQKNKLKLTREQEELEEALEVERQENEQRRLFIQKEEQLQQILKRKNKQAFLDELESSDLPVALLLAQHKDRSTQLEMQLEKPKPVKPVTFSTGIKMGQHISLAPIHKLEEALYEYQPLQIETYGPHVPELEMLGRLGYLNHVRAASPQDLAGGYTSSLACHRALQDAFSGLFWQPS

[5] = target: CDK4/Cyclin D1 (Homo sapiens (Human), UniProt P11802); assay: CDK4/CyclinD1 kinase inhibitory activity (Caliper mobility shift)
Sequence of CDK4/Cyclin D1 (P11802 whole entry): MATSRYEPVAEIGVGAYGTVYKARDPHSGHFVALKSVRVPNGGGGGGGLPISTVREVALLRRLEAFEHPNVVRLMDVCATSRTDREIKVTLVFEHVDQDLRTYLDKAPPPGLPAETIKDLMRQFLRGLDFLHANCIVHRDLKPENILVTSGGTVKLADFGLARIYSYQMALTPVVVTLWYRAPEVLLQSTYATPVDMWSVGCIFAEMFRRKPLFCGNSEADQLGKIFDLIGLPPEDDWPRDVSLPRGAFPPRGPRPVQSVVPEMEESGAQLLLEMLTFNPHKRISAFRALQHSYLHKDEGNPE
Sequence of CDK4/Cyclin D1 (P24385 whole entry partner): as the sequence (P24385 whole entry partner) above

[6] = target: CDK2/CyclinE1 (Homo sapiens (Human), UniProt P24941); assay: CDK2/CyclinE1 kinase inhibitory activity (Caliper mobility shift); settings: read-out: CDK2/Cyclin El IC50

Sequence of CDK9/CyclinT1 (P50750 whole entry): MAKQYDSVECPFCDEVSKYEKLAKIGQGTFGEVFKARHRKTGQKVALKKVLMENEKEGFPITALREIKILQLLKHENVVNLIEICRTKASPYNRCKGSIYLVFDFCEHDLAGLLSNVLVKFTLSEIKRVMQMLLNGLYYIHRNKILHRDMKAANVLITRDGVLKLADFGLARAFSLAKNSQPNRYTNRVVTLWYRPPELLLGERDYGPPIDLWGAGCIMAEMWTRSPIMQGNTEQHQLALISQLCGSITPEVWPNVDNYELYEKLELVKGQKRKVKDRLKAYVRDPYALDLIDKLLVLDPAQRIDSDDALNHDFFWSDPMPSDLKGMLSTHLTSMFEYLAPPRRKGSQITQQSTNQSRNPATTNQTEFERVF
Sequence of CDK9/CyclinT1 (O60563 whole entry partner): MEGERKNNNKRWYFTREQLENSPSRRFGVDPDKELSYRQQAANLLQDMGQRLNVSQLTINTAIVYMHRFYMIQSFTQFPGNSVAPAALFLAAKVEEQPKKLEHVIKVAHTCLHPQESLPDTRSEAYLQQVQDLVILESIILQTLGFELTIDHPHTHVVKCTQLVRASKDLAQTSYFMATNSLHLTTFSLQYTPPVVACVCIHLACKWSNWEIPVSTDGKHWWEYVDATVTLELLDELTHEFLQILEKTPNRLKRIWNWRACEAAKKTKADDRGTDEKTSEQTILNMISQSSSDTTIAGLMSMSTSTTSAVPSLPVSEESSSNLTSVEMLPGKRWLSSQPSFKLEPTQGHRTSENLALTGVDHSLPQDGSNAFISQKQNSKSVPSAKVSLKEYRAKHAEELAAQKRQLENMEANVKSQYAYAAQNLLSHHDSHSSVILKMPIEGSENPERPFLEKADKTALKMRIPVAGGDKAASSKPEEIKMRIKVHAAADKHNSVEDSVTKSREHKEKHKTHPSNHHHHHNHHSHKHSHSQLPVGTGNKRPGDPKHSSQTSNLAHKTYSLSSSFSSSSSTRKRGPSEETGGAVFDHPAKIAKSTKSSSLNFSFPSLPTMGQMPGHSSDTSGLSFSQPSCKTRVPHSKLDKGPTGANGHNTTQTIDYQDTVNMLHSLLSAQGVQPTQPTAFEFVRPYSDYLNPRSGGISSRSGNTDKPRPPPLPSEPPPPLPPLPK

Question: With `CC1(O)CCCCC1Oc1nc(Nc2ccc(S(N)(=O)=O)cc2)ncc1C#N` (single isomer, unassigned) [Example 24a] as the compound, how does the pIC50 [1] read?
Answer: > 8.00

Question: And the pIC50 [2]?
Answer: > 8.00

Question: What about the pIC50 [3] of the same compound?
Answer: > 8.00

Question: What about the pIC50 [4] of the same compound?
Answer: > 8.00

Question: What about the pIC50 [5] of the same compound?
Answer: > 8.00

Question: What about the pIC50 [6] of the same compound?
Answer: > 8.00

Question: `N#Cc1cnc(Nc2ccc(S(N)(=O)=O)cc2)nc1OC1CCCC1` [Example 10] was tested. Which pIC50 [1] did it give?
Answer: 7.00 to 8.00

Question: What about the pIC50 [2] of the same compound?
Answer: 7.00 to 8.00

Question: What about the pIC50 [3] of the same compound?
Answer: 7.00 to 8.00

Question: What about the pIC50 [4] of the same compound?
Answer: 6.00 to 7.00

Question: And the pIC50 [5]?
Answer: 7.00 to 8.00

Question: What about the pIC50 [6] of the same compound?
Answer: > 8.00

Question: With `CCS(=O)(=O)N1CCC(Nc2ncc(C#N)c(OC3CCCC3(C)O)n2)CC1` (single isomer, unassigned) [Example 36b] as the compound, how does the pIC50 [1] read?
Answer: 6.00 to 7.00

Question: And the pIC50 [2]?
Answer: 7.00 to 8.00

Question: What about the pIC50 [3] of the same compound?
Answer: 7.00 to 8.00

Question: What about the pIC50 [4] of the same compound?
Answer: 6.00 to 7.00

Question: What about the pIC50 [5] of the same compound?
Answer: > 8.00

Question: What about the pIC50 [6] of the same compound?
Answer: > 8.00

Question: With `CC(C)NS(=O)(=O)c1ccc(Nc2ncc(C#N)c(OC3CCC[C@H]3O)n2)cc1` (mixture of isomers) [Example 27] as the compound, how does the pIC50 [1] read?
Answer: 6.00 to 7.00

Question: What about the pIC50 [2] of the same compound?
Answer: 6.00 to 7.00

Question: And the pIC50 [3]?
Answer: 7.00 to 8.00

Question: And the pIC50 [4]?
Answer: ≤ 6.00

Question: What about the pIC50 [5] of the same compound?
Answer: 6.00 to 7.00

Question: What about the pIC50 [6] of the same compound?
Answer: > 8.00

Question: What does the source list for `CC1(COc2nc(NC3CCN(S(C)(=O)=O)CC3)ncc2C#N)CCCC1` [Example 54]?
Answer: pIC50 [1]: 6.00 to 7.00; pIC50 [2]: > 8.00; pIC50 [3]: 7.00 to 8.00; pIC50 [4]: 6.00 to 7.00; pIC50 [5]: > 8.00; pIC50 [6]: > 8.00

Question: With `N#Cc1cnc(Nc2ccc(S(N)(=O)=O)cc2)nc1OC1CCCCCC1O` (single isomer, unassigned) [Example 22a] as the compound, how does the pIC50 [1] read?
Answer: 6.00 to 7.00

Question: And the pIC50 [2]?
Answer: 7.00 to 8.00

Question: What about the pIC50 [3] of the same compound?
Answer: 7.00 to 8.00

Question: What about the pIC50 [4] of the same compound?
Answer: ≤ 6.00

Question: And the pIC50 [5]?
Answer: 7.00 to 8.00

Question: What about the pIC50 [6] of the same compound?
Answer: > 8.00

Question: With `[2H]C([2H])([2H])NS(=O)(=O)c1ccc(Nc2ncc(CC)c(OC3COCC3(C)O)n2)cc1` (single isomer, unassigned) [Example 150a] as the compound, how does the pIC50 [1] read?
Answer: 6.00 to 7.00

Question: What about the pIC50 [2] of the same compound?
Answer: 6.00 to 7.00

Question: And the pIC50 [3]?
Answer: 7.00 to 8.00

Question: What about the pIC50 [4] of the same compound?
Answer: 6.00 to 7.00

Question: And the pIC50 [5]?
Answer: 6.00 to 7.00

Question: And the pIC50 [6]?
Answer: > 8.00

Question: How did the pIC50 [1] turn out when `[2H]C([2H])([2H])NS(=O)(=O)c1ccc(Nc2ncc(C(F)(F)F)c(O[C@H]3CCCOC[C@H]3O)n2)cc1` (single isomer, unassigned) [Example 103a, cis-4-((4-((3-hydroxyoxepan-4-yl)oxy)-5-(trifluoromethyl)pyrimidin-2-yl)amino)-N-(methyl-d3)benzenesulfonamide] was run?
Answer: 6.00 to 7.00

Question: What about the pIC50 [2] of the same compound?
Answer: 6.00 to 7.00

Question: What about the pIC50 [3] of the same compound?
Answer: 7.00 to 8.00

Question: What about the pIC50 [4] of the same compound?
Answer: 6.00 to 7.00

Question: And the pIC50 [5]?
Answer: 6.00 to 7.00

Question: What about the pIC50 [6] of the same compound?
Answer: > 8.00

Question: What does the source list for `CC1(O)CCCC1Oc1nc(NC2CCN(S(=O)(=O)CC3CC3)CC2)ncc1C#N` (single isomer, unassigned) [Example 38a]?
Answer: pIC50 [1]: 6.00 to 7.00; pIC50 [2]: > 8.00; pIC50 [3]: 7.00 to 8.00; pIC50 [4]: 7.00 to 8.00; pIC50 [5]: > 8.00; pIC50 [6]: > 8.00

Question: Which results are given for `CC1(COc2nc(NC3CCN(S(N)(=O)=O)CC3)ncc2C#N)CCCC1` [Example 56]?
Answer: pIC50 [1]: 6.00 to 7.00; pIC50 [2]: 7.00 to 8.00; pIC50 [3]: > 8.00; pIC50 [4]: 6.00 to 7.00; pIC50 [5]: > 8.00; pIC50 [6]: > 8.00

Question: With `CN1CCC(NS(=O)(=O)c2ccc(Nc3ncc(Cl)c(OC4CCCC4O)n3)cc2)CC1` (single isomer, unassigned) [Example 139a] as the compound, how does the pIC50 [1] read?
Answer: 6.00 to 7.00

Question: And the pIC50 [2]?
Answer: 7.00 to 8.00

Question: And the pIC50 [3]?
Answer: 7.00 to 8.00

Question: What about the pIC50 [4] of the same compound?
Answer: 6.00 to 7.00

Question: And the pIC50 [5]?
Answer: 6.00 to 7.00

Question: And the pIC50 [6]?
Answer: > 8.00

Question: With `CNS(=O)(=O)N1CCC(Nc2ncc(C(F)(F)F)c(OC3CCCCCC3O)n2)CC1` (single isomer, unassigned) [Example 123b] as the compound, how does the pIC50 [1] read?
Answer: 6.00 to 7.00

Question: What about the pIC50 [2] of the same compound?
Answer: 7.00 to 8.00

Question: And the pIC50 [3]?
Answer: 7.00 to 8.00

Question: And the pIC50 [4]?
Answer: 6.00 to 7.00

Question: What about the pIC50 [5] of the same compound?
Answer: 7.00 to 8.00

Question: And the pIC50 [6]?
Answer: > 8.00

Question: Which results are given for `N#Cc1cnc(Nc2ccc(S(N)(=O)=O)cc2)nc1N1CCCCC1` [Example 65, 4-((5-cyano-4-(piperidin-1-yl)pyrimidin-2-yl)amino) benzenesulfonamide]?
Answer: pIC50 [1]: 6.00 to 7.00; pIC50 [2]: 6.00 to 7.00; pIC50 [3]: 7.00 to 8.00; pIC50 [4]: ≤ 6.00; pIC50 [5]: 7.00 to 8.00; pIC50 [6]: > 8.00
